In patent publication US20230391841A1, “MACROCYCLIC PEPTIDES” (Herantis Pharma OYJ, priority 2019, published 2023):
Bridge positions count the residues as written; N and C are the ends. Peptide text beside a SMILES is read from it.

Tests used:
[1] = In vitro metabolic stability in human plasma; assay type: in vitro ADME; conditions: 1 μM, 37° C., up to 120 min
Experimental: s Metabolic stability studied using human plasma over the time period of 120 min, with initial test concentration of 1 μM. Samples were analyzed using LC/QE-orbitrap-MS. Calculated half-life is based on compound disappearance in human plasma.
The linear or macrocyclic compounds 1-8, 11-14 and 23-24 (SEQ ID NOs: 1-8, 11-14 and 23-26) were incubated in concentration 1 μM with human plasma (mixed gender, 400 μl) for different time points (0, 20, 40, 60 or 120 min) at 37° C. The incubation was terminated by acetonitrile. The collected samples were centrifuged for 20 min at 2272×g and analyzed. The samples were analyzed by UHPLC/PDA with high resolution mass spectrometry (QE-Orbitrap-MS on DDI mode) to monitor disappearance of the compound. Propanthelin […] bromide 1 μM was used as a disappearance rate control. The analytical method was optimized by using the parent compounds for optimum chromatographic properties (peak shape and retention) and mass spectrometric ionization. The Ion chromatograms were extracted from the total ion chromatograms using calculated monoisotopic accurate masses with 5 mDa window. Disappearance was based on LC/MS peak areas, marking 0 min as 100%. The first-order rate constants k (min-1) of the metabolism were obtained from the slope of time versus logarithm (% of remaining compound) plot using Excel software.

[2] = Brain microdialysis (striatal interstitial fluid) after intravenous bolus; assay type: in vivo, male Sprague-Dawley rats; conditions: single 10 mg/kg intravenous bolus, microdialysis 4 hours
Experimental: Microdialysis probes were inserted to the ventral striatum of rats through implanted guide […] cannulas and perfused by aCSF. Compound 14 was administered as a single 10 mg/kg intravenous bolus injection and microdialysis samples were collected in 20-min interval for 4 hours. The brain interstitial fluid (ISF) concentrations of the compound were determined by LC-MS/MS and normalized to the recovery-% of the microdialysis membrane (determined by in vitro experiments).
Brain microdialysis study was carried out on the separate group of awake animals treated intravenously with compound 14. One week before the microdialysis experiment Sprague- Dawley rats were implanted with a guide cannula in the striatum at the following coordinates: AP +0.6 mm; L −3.0 mm; V −2.8 mm, providing the final V −6.8 mm for the tip of the microdialysis probe. On the day of the experiment a microdialysis probe (Eicom A-I: 0.22 mm O.D., 4 mm membrane length with cut-off 50 kDa) were inserted into the guide cannula and perfused at a constant flow-rate of 0.1 μL/min with artificial cerebrospinal fluid (aCSF) solution. […] The brain intrastitial fluid concentrations of the compound were analysed by UHPLC-MS/MS. […] Determined recovery percentage (29.3%) was used for correction of the data obtained in microdialysis study.

GRP78-NBD = experiment: Binding to GRP78-NBD Kd (μM)
Text: Table printed on a drawing sheet, FIG. 5B
Head of the field: Binding to GRP78-NBD Kd (μM)
GRP78-NBD is shown in a translucent surface model along with its cartoon trace. The Cys-Cys bond in compound 12 (SEQ ID NO: 12) is shown in sticks.
The binding affinities are obtained by a microscale thermophoresis-based cell-free assay.
GSK2606414 was used to inhibit PERK signaling and KIRA6 to inhibit IRE1alpha signaling. * p<0.05, ** p<0.01, *** p<0.001, **** p<0.0001 one-way ANOVA is test with post-hoc Fisher's LSD test for pairwise comparison vs MPP+ negative control. # p<0.05, ## p<0.01, ### p<0.001, #### p<0.0001 one-way ANOVA test with post-hoc Fisher's LSD test for pairwise comparison between effect of compound alone and its combination with UPR signal inhibitor.
Where the first naming reader finds the target: head: Binding to GRP78-NBD Kd (μM)

[3] = tested on: dopaminergic TH-positive neurons injured with MPP+; experiment: Dependence of neuroprotective activity on UPR pathway signaling (MPP+ injured mesencephalic neurons with PERK or IRE1alpha inhibitor); assay type: cell-based, rat; conditions: for neuroprotective effect in the presence of PERK inhibitor GSK2606414: GSK2606414 added 1 h before test compound; for neuroprotective effect in the presence of IRE1alpha inhibitor KIRA6: KIRA6 added 1 h before test compound
Experimental: CDNF and MANF protect cells from ER stress-induced cell dysfunction or cell death, such as apoptosis by modulating cellular responses to ER stress. […] Binding of compounds to GRP78-NBD was assessed in a cell-free binding assay using purified recombinant GRP78-NBD and synthesized peptides. As GRP78 also serves as a critical ligand of the three receptors of the unfolded protein response (UPR) pathway, […], PERK and ATF6, the dependency of the compounds' neuroprotective effects on UPR signaling was also tested.
The neuronal cell culture, MPP+ intoxication, immunostaining and analysis of neuroprotective effects of compounds were performed as in Example 1. PERK inhibitor GSK2606414 (2 µM , Sigma) or IRE1alpha inhibitor KIRA6 (2 µM , Sigma) were added to the culture 1 h before addition of the test compounds.

SMILES	stability in human plasma as compared to linear counterpart [1]	penetration to the brain parenchyma (brain ISF, striatum) [2]	Kd (GRP78-NBD)	neuroprotective effect in the presence of PERK inhibitor GSK2606414 [3]	neuroprotective effect in the presence of IRE1alpha inhibitor KIRA6 [3]
CC[C@H](C)[C@@H]1NC(=O)[C@H](CCC(N)=O)NC(=O)[C@H](CCCCN)NC(=O)[C@H](CC(C)C)NC(=O)[C@H](CCC(=O)O)NC(=O)[C@H](C)NC(=O)[C@H](C(C)C)NC(=O)[C@H](CCCNC(=N)N)NC(=O)[C@H](CCSC)NC(=O)[C@H](CCCCN)NC(=O)[C@H](CCCNC(=N)N)NC(=O)[C@H](CC(C)C)NC(=O)[C@H](CC(=O)O)NC(=O)[C@H](C(C)C)NC(=O)[C@H](CCC(=O)O)NC(=O)[C@H](C)NC(=O)[C@@H]2CSSC[C@H](NC(=O)[C@H](CCC(=O)O)NC(=O)[C@H](CCC(=O)O)NC(=O)CNC(=O)[C@H](Cc3c[nH]c4ccccc34)NC(=O)[C@H](CO)NC(=O)[C@H](Cc3c[nH]cn3)NC(=O)[C@H](CC(C)C)NC1=O)C(=O)N[C@@H](CCCNC(=N)N)C(=O)N[C@@H](C)C(=O)N2 [Compound 2] (cyclo(ACAEVDLRKMRVAELKQILHSWGEECR); disulfide 2-26)	improved stability				
C[C@@H]1NC(=O)[C@@H]2CSSC[C@H](NC(=O)[C@H]([C@@H](C)O)NC(=O)[C@H](CCC(=O)O)NC(=O)CNC(=O)[C@H](Cc3c[nH]c4ccccc34)NC(=O)[C@H](CO)NC(=O)[C@H](CCCCN)NC(=O)[C@H](CCC(=O)O)NC1=O)C(=O)N[C@@H](CCCCN)C(=O)NCC(=O)NCC(=O)N2 [Compound 26, WGETCKGGCAEKS] (cyclo(AEKSWGETCKGGC); disulfide 9-13)	improved stability				
C[C@@H]1NC(=O)[C@@H]2CSSC[C@H](NC(=O)[C@H]([C@@H](C)O)NC(=O)[C@H](CCC(=O)O)NC(=O)CNC(=O)[C@H](Cc3c[nH]c4ccccc34)NC(=O)[C@H](CO)NC(=O)[C@H](CCCCN)NC(=O)[C@H](CCC(=O)O)NC1=O)C(=O)N[C@@H](CCCCN)C(=O)NCC(=O)N2 [Compound 14, WGETCKGCAEKS] (cyclo(AEKSWGETCKGC); disulfide 9-12)		penetration	1.5 µM	abolished	abolished
CC[C@H](C)[C@@H]1NC(=O)[C@H](CO)NC(=O)[C@H](CCCCN)NC(=O)[C@H](CCC(=O)O)NC(=O)[C@H](C)NC(=O)[C@@H]2CSSC[C@H](NC(=O)[C@H]([C@@H](C)O)NC(=O)[C@H](CCC(=O)O)NC(=O)CNC(=O)[C@H](Cc3c[nH]c4ccccc34)NC(=O)[C@H](CC(=O)O)NC(=O)[C@H](CC(=O)O)NC(=O)[C@H](CC(C)C)NC1=O)C(=O)N[C@@H](CCCCN)C(=O)NCC(=O)N2 [Compound 10, KSILDDWGETCKGCAE] (cyclo(AEKSILDDWGETCKGC); disulfide 13-16)				abolished	abolished
C[C@@H]1NC(=O)[C@@H]2CSSC[C@H](NC(=O)[C@H](CCC(=O)O)NC(=O)[C@H](CCC(=O)O)NC(=O)CNC(=O)[C@H](Cc3c[nH]c4ccccc34)NC(=O)[C@H]([C@@H](C)O)NC(=O)[C@H](CCCCN)NC(=O)[C@H](CCC(=O)O)NC1=O)C(=O)N[C@@H](CCCNC(=N)N)C(=O)N[C@@H](C)C(=O)N2 [Compound 12, WGEECRACAEKT] (cyclo(ACAEKTWGEECR); disulfide 2-11)			1.65 µM		
